Earlier results, collected in US20130035389A1, “METHODS FOR TREATING MYELODYSPLASTIC SYNDROME WITH EZATIOSTAT” (Telik, Inc., priority 2011, published 2013).

Tests used:
[1] = test system: hematopoietic progenitor cells; conditions: in vitro
GST P1-1 = GST P1-1 (Homo sapiens, UniProt P09211); conditions: leads to de-repression of jun kinase and activation of c-Jun
leukemia cells = conditions: in vitro
myelodysplastic syndrome = conditions: low risk and intermediate-1 risk MDS patients, oral, phase II study

Sequence of GST P1-1 (P09211 2-210 limits assumed): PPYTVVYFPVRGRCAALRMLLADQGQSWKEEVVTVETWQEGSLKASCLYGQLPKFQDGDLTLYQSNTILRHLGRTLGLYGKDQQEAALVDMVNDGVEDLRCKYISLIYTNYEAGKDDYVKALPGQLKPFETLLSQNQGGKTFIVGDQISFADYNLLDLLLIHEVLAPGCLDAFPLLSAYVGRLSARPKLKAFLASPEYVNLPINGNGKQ

CCOC(=O)[C@@H](N)CCC(=O)N[C@@H](CSCc1ccccc1)C(=O)N[C@@H](C(=O)OCC)c1ccccc1 [Ezatiostat, ethyl (2S)-2-amino-5-[[(2R)-3-benzylsulfanyl-1-[[(1R)-2-ethoxy-2-oxo-1-phenylethyl]amino]-1-oxopropan-2-yl]amino]-5-oxopentanoate]
effect on growth and differentiation of hematopoietic progenitor cells [1]: stimulate growth and differentiation of hematopoietic progenitor cells | inhibition of GST P1-1 (GST P1-1): inhibits GST P1-1 | apoptosis in leukemia cells (leukemia cells): induce apoptosis in leukemia cells

CCOC(=O)[C@@H](N)CCC(=O)N[C@@H](CSCc1ccccc1)C(=O)N[C@@H](C(=O)OCC)c1ccccc1.Cl [ezatiostat hydrochloride]
clinical response (myelodysplastic syndrome): multilineage responses
